Laboratory results: the supplement of paper PMC13380429

Tests used:
Settings in all cases: 72 h
Caco-2 [1] = assay: cell viability relative to DMSO; higher = less toxic
Calu-3 [2] = assay: as above
HepG2 [3] = assay: as above
U2OS [4] = assay: as above
Vero E6 [5] = assay: as above
Caco-2 [6] = assay: relative viability EC50 (midpoint between 100% and the lowest measured viability); higher = less toxic
Calu-3 [7] = assay: as above
HepG2 [8] = assay: as above
U2OS [9] = assay: as above
Vero E6 [10] = assay: as above
Caco-2 [11] = assay: drug sensitivity score (DSS) for viability; higher = more toxic; extreme values may be limits of the assay
Calu-3 [12] = assay: as above
HepG2 [13] = assay: as above
U2OS [14] = assay: as above
Vero E6 [15] = assay: as above

Compound | cell viability (Caco-2 [1]; 1 nM) [%] | cell viability (Caco-2 [1]; 10 nM) [%] | cell viability (Caco-2 [1]; 100 nM) [%] | cell viability (Caco-2 [1]; 1000 nM) [%] | cell viability (Caco-2 [1]; 10000 nM) [%] | cell viability (Calu-3 [2]; 1 nM) [%] | cell viability (Calu-3 [2]; 10 nM) [%] | cell viability (Calu-3 [2]; 100 nM) [%] | cell viability (Calu-3 [2]; 1000 nM) [%] | cell viability (Calu-3 [2]; 10000 nM) [%] | cell viability (HepG2 [3]; 1 nM) [%] | cell viability (HepG2 [3]; 10 nM) [%] | cell viability (HepG2 [3]; 100 nM) [%] | cell viability (HepG2 [3]; 1000 nM) [%] | cell viability (HepG2 [3]; 10000 nM) [%] | cell viability (U2OS [4]; 1 nM) [%] | cell viability (U2OS [4]; 10 nM) [%] | cell viability (U2OS [4]; 100 nM) [%] | cell viability (U2OS [4]; 1000 nM) [%] | cell viability (U2OS [4]; 10000 nM) [%] | cell viability (Vero E6 [5]; 1 nM) [%] | cell viability (Vero E6 [5]; 10 nM) [%] | cell viability (Vero E6 [5]; 100 nM) [%] | cell viability (Vero E6 [5]; 1000 nM) [%] | cell viability (Vero E6 [5]; 10000 nM) [%] | relative viability EC50 (Caco-2 [6]) [µM] | relative viability EC50 (Calu-3 [7]) [µM] | relative viability EC50 (HepG2 [8]) [µM] | relative viability EC50 (U2OS [9]) [µM] | relative viability EC50 (Vero E6 [10]) [µM] | drug sensitivity score (Caco-2 [11]) | drug sensitivity score (Calu-3 [12]) | drug sensitivity score (HepG2 [13]) | drug sensitivity score (U2OS [14]) | drug sensitivity score (Vero E6 [15])
COc1ccc(C2C(=O)c3ccccc3C2=O)cc1 [anisindione] | 101 | 93.8 | 100 | 98.3 | 95.3 | 112 | 106 | 108 | 95.7 | 108 | 107 | 111 | 105 | 108 | 94.7 | 101 | 97.8 | 102 | 106 | 105 | 95.1 | 92.1 | 94.7 | 89.5 | 105 | > 10 | > 10 | > 10 | > 10 | > 10 | 0 | 0 | 0 | 0 | 0
O=C1C(=O)N(Cc2ccc(Cl)c(Cl)c2)c2ccccc21 [apoptosis-activator-II] | 91.6 | 104 | 93.3 | 96.7 | 84.5 | 95.7 | 93 | 103 | 92.6 | 89 | 103 | 98 | 108 | 107 | 84.5 | 99.2 | 98.9 | 94 | 94.4 | 30.2 | 106 | 102 | 103 | 102 | 87.8 | > 10 | > 10 | > 10 | 2.5 | > 10 | 0.2 | 0 | 0.1 | 4.7 | 0
CCc1cccc(N(C)C(=N)Nc2cccc3ccccc23)c1 [aptiganel] | 98.1 | 95.6 | 96.4 | 94.5 | 82 | 106 | 105 | 93.2 | 92.5 | 75.1 | 97.6 | 97.2 | 96.1 | 96 | 85.8 | 101 | 107 | 98.5 | 97.5 | 88.2 | 98.2 | 100 | 103 | 96.7 | 88.8 | > 10 | > 10 | > 10 | > 10 | > 10 | 0.7 | 1.4 | 0.1 | 0.1 | 0.1
CCCCN(CCCC)C(=O)CN1C[C@H](c2ccc3c(c2)OCO3)[C@@H](C(=O)O)[C@@H]1c1ccc(OC)cc1 [atrasentan] | 101 | 99.8 | 98.3 | 88.3 | 99.3 | 98.7 | 94.6 | 114 | 104 | 109 | 106 | 104 | 92.6 | 104 | 97.6 | 94.4 | 94.4 | 102 | 94.5 | 106 | 104 | 105 | 98.8 | 98.8 | 104 | > 10 | > 10 | > 10 | > 10 | > 10 | 0 | 0 | 0 | 0 | 0
CC[C@H]1OC(=O)[C@H](C)[C@@H](O[C@H]2C[C@@](C)(OC)[C@@H](O)[C@H](C)O2)[C@H](C)[C@@H](O[C@@H]2O[C@H](C)C[C@H](N(C)C)[C@H]2O)[C@](C)(O)C[C@@H](C)CN(C)[C@H](C)[C@@H](O)[C@]1(C)O [azithromycin] | 89.6 | 104 | 96.7 | 101 | 92.2 | 96.2 | 94.5 | 104 | 89.8 | 106 | 111 | 105 | 83.5 | 105 | 92 | 95.5 | 98.7 | 104 | 96.6 | 98.2 | 107 | 103 | 100 | 99.7 | 101 | > 10 | > 10 | > 10 | > 10 | > 10 | 0 | 0 | 0 | 0 | 0
CC(Cc1cccc(C(F)(F)F)c1)NCCOC(=O)c1ccccc1 (stereo not given) [benfluorex] | 103 | 95.9 | 103 | 107 | 97.6 | 97.8 | 94.5 | 100 | 96.4 | 104 | 86 | 96.6 | 97.8 | 99.4 | 88.4 | 98.8 | 102 | 105 | 96.8 | 100 | 101 | 107 | 94.2 | 100 | 96.3 | > 10 | > 10 | > 10 | > 10 | > 10 | 0 | 0 | 0 | 0 | 0
C=C(c1ccc(C(=O)O)cc1)c1cc2c(cc1C)C(C)(C)CCC2(C)C [bexarotene] | 106 | 90.1 | 95.2 | 86.4 | 86.3 | 92.5 | 95.8 | 102 | 96.7 | 103 | 94.9 | 96.8 | 107 | 99.7 | 112 | 94 | 97.9 | 102 | 95 | 92.7 | 100 | 102 | 96.6 | 94.3 | 98 | > 10 | > 10 | > 10 | > 10 | > 10 | 0.9 | 0 | 0 | 0 | 0
